These results are taken from patent US10660877B2 (BRISTOL-MYERS SQUIBB COMPANY, priority 2016, dated 2020).

The structures appear in SMILES notation. Like-named read-outs stand apart in the source and are kept apart here.

In one experiment the target is human TLR9 (Homo sapiens (Human), UniProt Q9NR96). Nature of the experiment: TLR9 inhibition reporter assay (HEK-Blue cells, SEAP reporter, ODN2006 stimulation). (Reporter assays use an easily measured gene product as a stand-in for the process of interest.);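 also: compounds tested over 0.05 nM to 50 µM, 22 h incubation, inhibition taken as SEAP signal drop from agonist plus DMSO wells toward a known inhibitor control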
human TLR9, sequence (Q9NR96 26-1032): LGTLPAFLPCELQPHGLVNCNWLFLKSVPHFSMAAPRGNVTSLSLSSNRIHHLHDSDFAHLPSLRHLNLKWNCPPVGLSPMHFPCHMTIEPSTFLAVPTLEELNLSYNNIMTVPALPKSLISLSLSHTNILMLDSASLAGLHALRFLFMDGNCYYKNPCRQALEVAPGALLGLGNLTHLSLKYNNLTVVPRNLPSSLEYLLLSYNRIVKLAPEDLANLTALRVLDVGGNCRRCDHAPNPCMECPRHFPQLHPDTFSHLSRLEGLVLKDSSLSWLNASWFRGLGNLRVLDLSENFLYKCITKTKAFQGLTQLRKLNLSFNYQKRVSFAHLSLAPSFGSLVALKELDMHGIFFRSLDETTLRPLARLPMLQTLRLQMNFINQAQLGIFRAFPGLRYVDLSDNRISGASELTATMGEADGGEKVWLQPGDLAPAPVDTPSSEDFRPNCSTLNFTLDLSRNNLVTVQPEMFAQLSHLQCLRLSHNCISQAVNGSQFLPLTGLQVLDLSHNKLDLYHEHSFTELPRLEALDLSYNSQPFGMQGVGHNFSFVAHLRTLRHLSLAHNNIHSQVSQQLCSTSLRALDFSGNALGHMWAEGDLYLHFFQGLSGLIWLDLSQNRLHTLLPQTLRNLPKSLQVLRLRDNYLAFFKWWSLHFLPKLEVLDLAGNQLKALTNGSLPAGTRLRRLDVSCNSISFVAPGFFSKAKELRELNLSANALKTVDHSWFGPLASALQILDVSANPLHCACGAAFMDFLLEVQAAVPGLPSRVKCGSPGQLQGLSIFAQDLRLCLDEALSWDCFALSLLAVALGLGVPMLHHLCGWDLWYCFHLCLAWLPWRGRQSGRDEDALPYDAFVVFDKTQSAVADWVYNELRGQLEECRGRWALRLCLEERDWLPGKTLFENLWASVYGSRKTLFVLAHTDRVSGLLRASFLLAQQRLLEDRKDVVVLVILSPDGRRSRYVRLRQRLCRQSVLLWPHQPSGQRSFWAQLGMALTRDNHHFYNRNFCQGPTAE
Another experiment concerns the target human TLR7 (Homo sapiens (Human), UniProt Q9NYK1). The experiment is described as follows: TLR7 inhibition reporter assay (HEK-Blue cells, SEAP reporter, gardiquimod stimulation). Type of experiment: cell-based.
Another experiment addresses human TLR8 (Homo sapiens (Human), UniProt Q9NR97). The experiment is described as follows: TLR8 inhibition reporter assay (HEK-Blue cells, SEAP reporter, R848 stimulation).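 Also: compounds tested from 0.05 nM to 50 µM, 22 h at 37 °C, SEAP measured with HEK-Blue Detection, inhibition relative to agonist plus DMSO versus a known inhibitor.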
The mark [1] stands for this setting: read-out: TLR9 IC50, HEK-Blue cells overexpressing human TLR9, ODN2006 5 nM.
Where [2] appears, read: HEK-Blue cells overexpressing human TLR7, gardiquimod 7.5 μM.
Setting [3] is: read-out: TLR8 IC50, HEK-Blue cells overexpressing human TLR8, R848 15.9 μM.

One may read the IC50 as the concentration at which inhibition is half-maximal.

human TLR7, sequence (Q9NYK1 27-1049): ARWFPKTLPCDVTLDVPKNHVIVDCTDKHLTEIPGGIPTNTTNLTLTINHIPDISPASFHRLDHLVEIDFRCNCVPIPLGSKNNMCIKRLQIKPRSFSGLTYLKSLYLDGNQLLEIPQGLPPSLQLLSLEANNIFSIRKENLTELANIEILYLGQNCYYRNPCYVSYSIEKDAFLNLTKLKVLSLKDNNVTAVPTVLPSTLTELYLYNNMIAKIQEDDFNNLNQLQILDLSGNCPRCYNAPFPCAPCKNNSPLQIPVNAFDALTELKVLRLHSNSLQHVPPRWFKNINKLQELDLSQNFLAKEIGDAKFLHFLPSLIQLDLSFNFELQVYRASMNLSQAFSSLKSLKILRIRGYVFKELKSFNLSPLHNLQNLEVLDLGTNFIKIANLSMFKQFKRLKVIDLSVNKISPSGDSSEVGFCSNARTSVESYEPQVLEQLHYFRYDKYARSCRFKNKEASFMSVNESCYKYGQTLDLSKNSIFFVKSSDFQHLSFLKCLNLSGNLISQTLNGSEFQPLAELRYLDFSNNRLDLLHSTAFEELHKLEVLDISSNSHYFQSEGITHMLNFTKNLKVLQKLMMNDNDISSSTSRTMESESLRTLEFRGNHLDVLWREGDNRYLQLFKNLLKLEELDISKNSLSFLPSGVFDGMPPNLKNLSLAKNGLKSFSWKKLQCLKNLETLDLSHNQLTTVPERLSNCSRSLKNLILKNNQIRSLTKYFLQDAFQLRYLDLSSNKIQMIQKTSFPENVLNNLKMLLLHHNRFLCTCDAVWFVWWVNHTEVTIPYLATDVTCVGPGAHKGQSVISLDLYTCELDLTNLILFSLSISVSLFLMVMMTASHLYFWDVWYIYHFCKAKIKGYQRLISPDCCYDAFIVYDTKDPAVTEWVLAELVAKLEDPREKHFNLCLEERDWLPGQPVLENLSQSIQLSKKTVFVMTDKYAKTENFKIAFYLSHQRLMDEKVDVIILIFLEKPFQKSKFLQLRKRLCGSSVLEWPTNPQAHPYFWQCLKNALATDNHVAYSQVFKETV
human TLR8, sequence (Q9NR97 27-1041): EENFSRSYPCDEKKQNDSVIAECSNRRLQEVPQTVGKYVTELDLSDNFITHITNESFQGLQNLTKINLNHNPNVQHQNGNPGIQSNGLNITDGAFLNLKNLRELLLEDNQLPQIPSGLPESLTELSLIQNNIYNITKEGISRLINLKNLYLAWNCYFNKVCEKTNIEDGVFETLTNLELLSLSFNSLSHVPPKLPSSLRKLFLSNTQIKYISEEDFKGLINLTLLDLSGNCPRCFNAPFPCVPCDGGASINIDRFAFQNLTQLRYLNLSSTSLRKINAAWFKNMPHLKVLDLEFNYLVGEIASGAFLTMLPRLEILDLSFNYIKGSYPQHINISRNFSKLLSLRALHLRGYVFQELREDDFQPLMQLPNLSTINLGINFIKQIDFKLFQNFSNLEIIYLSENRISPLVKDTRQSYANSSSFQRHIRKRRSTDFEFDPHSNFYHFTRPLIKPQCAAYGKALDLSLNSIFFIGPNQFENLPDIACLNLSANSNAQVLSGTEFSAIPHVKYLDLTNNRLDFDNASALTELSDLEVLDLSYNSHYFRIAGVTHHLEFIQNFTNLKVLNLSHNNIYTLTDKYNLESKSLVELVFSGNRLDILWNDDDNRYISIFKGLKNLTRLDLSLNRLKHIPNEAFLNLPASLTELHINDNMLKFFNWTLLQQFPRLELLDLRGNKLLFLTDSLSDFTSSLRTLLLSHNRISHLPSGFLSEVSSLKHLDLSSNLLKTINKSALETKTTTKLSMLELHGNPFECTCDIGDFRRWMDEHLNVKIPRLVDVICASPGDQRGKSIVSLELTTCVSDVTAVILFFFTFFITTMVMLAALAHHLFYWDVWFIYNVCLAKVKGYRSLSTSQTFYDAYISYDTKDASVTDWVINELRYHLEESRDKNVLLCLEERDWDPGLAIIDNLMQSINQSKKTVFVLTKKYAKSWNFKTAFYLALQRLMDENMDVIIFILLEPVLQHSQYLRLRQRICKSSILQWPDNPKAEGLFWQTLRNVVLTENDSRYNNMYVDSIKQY

As for `Cc1cc(-c2[nH]c3ccc(C4CCN(C(=O)CN(C)C(C)C)CC4)cc3c2C(C)C)cc(C)n1` [Example 354, 1-(4-(2-(2,6-dimethylpyridin-4-yl)-3-isopropyl-1H-indol-5-yl)piperidin-1-yl)-2-(isopropyl(methyl)amino)ethan-1-one], the IC50 on human TLR9 (setting [1]) is 447 nM; against human TLR7 (setting [2]) it was 3.5 nM; at human TLR8 (setting [3]), 11.2 nM.
As to `Cc1cc(-c2[nH]c3ccc(C4CCN(CC5CCN(C(C)C)C5)CC4)cc3c2C(C)C)cc(C)n1` (stereo not drawn) [Example 465, 2-(2,6-dimethylpyridin-4-yl)-3-isopropyl-5-(1-((1-isopropylpyrrolidin-3-yl)methyl)piperidin-4-yl)-1H-indole], the half-inhibitory concentration (IC50) at human TLR9 (setting [1]) is 147 nM; against human TLR7 (setting [2]), 7 nM; at human TLR8 (setting [3]), 4.7 nM.
`Cc1cc(-c2[nH]c3ccc(C4CCN(C(=O)CN5CCC(F)(F)CC5)CC4)cc3c2C(C)C)cc(C)n1` [Example 362, 2-(4,4-difluoropiperidin-1-yl)-1-(4-(2-(2,6-dimethylpyridin-4-yl)-3-isopropyl-1H-indol-5-yl)piperidin-1-yl)ethan-1-one]: the IC50 at human TLR9 (setting [1]) is 16100 nM; at human TLR7 (setting [2]), 33.6 nM; on human TLR8 (setting [3]), 55.1 nM.
As to `Cc1cc(-c2[nH]c3ccc(C4CCN(CC(=O)N5CCCC(C)(C)C5)CC4)cc3c2C(C)C)cc(C)n1` [Example 249, 1-(3,3-dimethylpiperidin-1-yl)-2-(4-(2-(2,6-dimethylpyridin-4-yl)-3-isopropyl-1H-indol-5-yl)piperidin-1-yl)ethan-1-one], the IC50 on human TLR9 (setting [1]) was determined as 973 nM; against human TLR7 (setting [2]), 15.4 nM; on human TLR8 (setting [3]), 36.3 nM.
The corresponding values for `CCc1c(-c2cc(C)nc(C)c2)[nH]c2ccc(C3CCN(CC(=O)NC)CC3)cc12` [Example 527, 2-(4-(2-(2,6-dimethylpyridin-4-yl)-3-ethyl-1H-indol-5-yl)piperidin-1-yl)-N-methylacetamide] are 608 nM, 54.1 nM and 63.6 nM.
For the molecule `Cc1cc(-c2[nH]c3ccc(C4CCN(C(=O)CNC5(C)CCOCC5)CC4)cc3c2C(C)C)cc(C)n1` [Example 374, 1-(4-(2-(2,6-dimethylpyridin-4-yl)-3-isopropyl-1H-indol-5-yl)piperidin-1-yl)-2-((4-methyltetrahydro-2H-pyran-4-yl)amino)ethan-1-one], the IC50 at human TLR9 (TLR9 IC50, HEK-Blue cells overexpressing human TLR9, ODN2006 5 nM) is 548 nM; at human TLR7 (setting [2]) it was 5.6 nM; on human TLR8 (TLR8 IC50, HEK-Blue cells overexpressing human TLR8, R848 15.9 μM), 21.4 nM.
`Cc1cc(-c2[nH]c3ccc(C4CCN(C(=O)Cn5cnnn5)CC4)cc3c2C(C)C)cc(C)n1` [Example 165, 1-(4-(2-(2,6-dimethylpyridin-4-yl)-3-isopropyl-1H-indol-5-yl)piperidin-1-yl)-2-(1H-tetrazol-1-yl)ethan-1-one]: the IC50 on human TLR9 (setting [1]) came out at 17200 nM; against human TLR7 (setting [2]) it was 13.3 nM; at human TLR8 (setting [3]) it was 66.1 nM.
Regarding `Cc1cc(-c2[nH]c3ccc(C4CCN(CC(O)C(F)(F)F)CC4)cc3c2C(C)C)ccn1` (stereo not drawn) [Example 661, 1,1,1-trifluoro-3-(4-(3-isopropyl-2-(2-methylpyridin-4-yl)-1H-indol-5-yl)piperidin-1-yl)propan-2-ol], the 50% inhibitory concentration (IC50) on human TLR9 (setting [1]) was 1940 nM; on human TLR7 (setting [2]), 30.9 nM; at human TLR8 (setting [3]) it was 3.1 nM.
`Cc1cc(-c2[nH]c3ccc(C4CCN(C)CC4)cc3c2C(C)C)c(C)cn1` [Example 636, 2-(2,5-dimethylpyridin-4-yl)-3-isopropyl-5-(1-methylpiperidin-4-yl)-1H-indole]: the results for the IC50 at human TLR9 (setting [1]), on human TLR7 (setting [2]) and on human TLR8 (setting [3]) were 1370 nM, 9.8 nM and 1 nM, respectively.
Take `Cc1cc(-c2[nH]c3ccc(C4CCN(C(=O)C5CC5(F)F)CC4)cc3c2C(C)C)cc(C)n1` (stereo not drawn) [Example 108, (2,2-difluorocyclopropyl)(4-(2-(2,6-dimethylpyridin-4-yl)-3-isopropyl-1H-indol-5-yl)piperidin-1-yl)methanone]: the IC50 on human TLR9 (setting [1]) was 33100 nM; on human TLR7 (setting [2]), 7.4 nM; at human TLR8 (setting [3]) it was 103 nM.
Consider `CCc1c(-c2ccnc(OC)c2)[nH]c2ccc(C3CCN(C4CCN(CC(C)C)CC4)CC3)cc12` [Example 780, 3-ethyl-5-(1′-isobutyl-[1,4′-bipiperidin]-4-yl)-2-(2-methoxypyridin-4-yl)-1H-indole], for which the IC50 on human TLR9 (setting [1]) is 412 nM; against human TLR7 (setting [2]) it was 502 nM; on human TLR8 (setting [3]), 81.1 nM.
As to `CCc1cc(-c2[nH]c3ccc(C4CCNCC4)cc3c2C(C)C)cc(OC)n1` [Example 487, 2-(2-ethyl-6-methoxypyridin-4-yl)-3-isopropyl-5-(piperidin-4-yl)-1H-indole], the results for the IC50 on human TLR9 (setting [1]), on human TLR7 (setting [2]) and on human TLR8 (setting [3]) were 2140 nM, 33.4 nM and 79.1 nM, respectively.
As for `Cc1cc(-c2[nH]c3ccc(C4CCN(C5CCOCC5)CC4)cc3c2C(C)C)ccn1` [Example 710, 3-isopropyl-2-(2-methylpyridin-4-yl)-5-(1-(tetrahydro-2H-pyran-4-yl)piperidin-4-yl)-1H-indole], the values for the IC50 at human TLR9 (setting [1]), against human TLR7 (setting [2]) and at human TLR8 (setting [3]) were 554 nM, 8 nM and 3 nM, respectively.
The corresponding values for `Cc1cc(-c2[nH]c3ccc(C4CCN(CCC(F)(F)F)CC4)cc3c2C(C)C)ccn1` [Example 676, 3-isopropyl-2-(2-methylpyridin-4-yl)-5-(1-(3,3,3-trifluoropropyl)piperidin-4-yl)-1H-indole] are 1930 nM, 19 nM and 12.3 nM.
In the same order, the values of `Cc1cc(-c2[nH]c3ccc(C4CCN(C(=O)CNC5CCC5)CC4)cc3c2C(C)C)cc(C)n1` [Example 334, 2-(cyclobutylamino)-1-(4-(2-(2,6-dimethylpyridin-4-yl)-3-isopropyl-1H-indol-5-yl)piperidin-1-yl)ethan-1-one] are 474 nM, 2.3 nM and 7.6 nM.
On to `Cc1cc(-c2[nH]c3ccc(C4CCN(CC(=O)N5CCC[C@@H](O)C5)CC4)cc3c2C(C)C)cc(C)n1` [Example 209, (R)-2-(4-(2-(2,6-dimethylpyridin-4-yl)-3-isopropyl-1H-indol-5-yl)piperidin-1-yl)-1-(3-hydroxypiperidin-1-yl)ethan-1-one], for which the concentration for half-maximal inhibition (IC50) at human TLR9 (setting [1]) was found to be 604 nM; against human TLR7 (setting [2]) it was 3.5 nM; on human TLR8 (setting [3]) it was 13 nM.
In the case of `Cc1nccc(-c2[nH]c3ccc(C4CCN(C)CC4)cc3c2C(C)C)c1C` [Example 637, 2-(2,3-dimethylpyridin-4-yl)-3-isopropyl-5-(1-methylpiperidin-4-yl)-1H-indole], the IC50 came to 1540 nM on human TLR9 (setting [1]), 36.4 nM at human TLR7 (setting [2]) and 42.1 nM at human TLR8 (setting [3]).
Consider `Cc1cc(-c2[nH]c3ccc(C4CCN(C(=O)C(=O)NCCc5ccncc5)CC4)cc3c2C(C)C)cc(C)n1` [Example 860, 2-(4-(2-(2,6-dimethylpyridin-4-yl)-3-isopropyl-1H-indol-5-yl)piperidin-1-yl)-2-oxo-N-(2-(pyridin-4-yl)ethyl)acetamide], for which the half-maximal inhibitory concentration (IC50) is 15700 nM on human TLR9 (read-out: TLR9 IC50, HEK-Blue cells, ODN2006 5 nM); 9.7 nM against human TLR7 (HEK-Blue cells, gardiquimod 7.5 μM); 89.2 nM at human TLR8 (read-out: TLR8 IC50, HEK-Blue cells, R848 15.9 μM).
As to `CCCCN(CCO)CC(=O)N1CCC(c2ccc3[nH]c(-c4cc(C)nc(C)c4)c(C(C)C)c3c2)CC1` [Example 414, 2-(butyl(2-hydroxyethyl)amino)-1-(4-(2-(2,6-dimethylpyridin-4-yl)-3-isopropyl-1H-indol-5-yl)piperidin-1-yl)ethan-1-one], the IC50 was 924 nM on human TLR9 (setting [1]), 2.4 nM on human TLR7 (setting [2]) and 16.8 nM at human TLR8 (setting [3]).
In the case of `Cc1cc(-c2[nH]c3ccc(C4CCN(C5CCN(C(C)C)CC5)CC4)cc3c2CC(F)F)cc(C)n1` [Example 540, 3-(2,2-difluoroethyl)-2-(2,6-dimethylpyridin-4-yl)-5-(1′-isopropyl-[1,4′-bipiperidin]-4-yl)-1H-indole], the results for the IC50 at human TLR9 (setting [1]), at human TLR7 (setting [2]) and at human TLR8 (setting [3]) were 131 nM, 11.8 nM and 25.6 nM, respectively.
In the same order, the values of `CCc1c(-c2ccnc(C)c2)[nH]c2ccc(C3CCN(CC4CCN(C(C)C)CC4)CC3)cc12` [Example 675, 3-ethyl-5-(1-((1-isopropylpiperidin-4-yl)methyl)piperidin-4-yl)-2-(2-methylpyridin-4-yl)-1H-indole] are 42 nM, 44.7 nM and 11.9 nM.
The corresponding values for `Cc1cc(-c2[nH]c3ccc(C4CCN(C(=O)CN(C)CC(C)C)CC4)cc3c2C(C)C)cc(C)n1` [Example 355, 1-(4-(2-(2,6-dimethylpyridin-4-yl)-3-isopropyl-1H-indol-5-yl)piperidin-1-yl)-2-(isobutyl (methyl)amino)ethan-1-one] are 1070 nM, 8.8 nM and 34 nM.
Consider `Cc1cc(-c2[nH]c3ccc(C4CCN(C)CC4)cc3c2C(C)C)c(F)cn1` [Example 635, 2-(5-fluoro-2-methylpyridin-4-yl)-3-isopropyl-5-(1-methylpiperidin-4-yl)-1H-indole], for which the 50% inhibitory concentration (IC50) on human TLR9 (setting [1]) worked out at 3690 nM; against human TLR7 (setting [2]), 5.6 nM; on human TLR8 (setting [3]) it was 5.1 nM.
As to `Cc1cc(-c2[nH]c3ccc(C4CCN(C(=O)CN(C)C)CC4)cc3c2C(C)C)cc(C2CC2)n1` [Example 506, 1-(4-(2-(2-cyclopropyl-6-methylpyridin-4-yl)-3-isopropyl-1H-indol-5-yl)piperidin-1-yl)-2-(dimethylamino)ethan-1-one], the IC50 stood at 1100 nM at human TLR9 (setting [1]), 11.1 nM on human TLR7 (setting [2]) and 42.7 nM at human TLR8 (setting [3]).
As for `Cc1cc(-c2[nH]c3ccc(C4CCN(Cc5ncn(C)n5)CC4)cc3c2C(C)C)cc(C)n1` [Example 451, 2-(2,6-dimethylpyridin-4-yl)-3-isopropyl-5-(1-((1-methyl-1H-1,2,4-triazol-3-yl)methyl)piperidin-4-yl)-1H-indole], the IC50 on human TLR9 (setting [1]) worked out at 1560 nM; at human TLR7 (setting [2]) it was 5.9 nM; on human TLR8 (setting [3]) it was 12.2 nM.
